Measurements from patent US4346087A, “Antibacterial surface active agent containing azaalkenelactam” (priority 1979, dated 1982).
In brackets after ≈: the same amount, converted by molar mass. Like-named read-outs stand apart in the source and are kept apart here.

Experiments:
[1] = test system: Desulfovibrio desulfuricans IFO 13699; test: MIC against Desulfovibrio desulfuricans; format: cell-based; conditions: Desulfovibrio desulfuricans
Source text: (§1) Below are described the antibacterial activities of the compounds in the compositions according to this invention.
(§2) The testing method complied with the standard method of Japan Sociaty of Chemotherapy.

[2] = test system: Staphylococcus epidermidis; test: MIC against Staphylococcus epidermidis; format: cell-based; conditions: Staphylococcus epidermidis
Source text: (§3) Below are described the antibacterial activities of the compounds in the compositions according to this invention. The results of antibacterial activity tests on the N-alkyl-substituted azaalkenelactams and their derivatives having a carboxylate radical of Examples 1 to 70 were as shown in Tables 1 to 3.
as §2

Escherichia coli NIHJ = test: MIC against Escherichia coli NIHJ; format: cell-based; conditions: Escherichia coli
Source text: as §1, §2

[3] = test system: Pseudomonas aruginosa IFO 3443; test: MIC against Pseudomonas aeruginosa; format: cell-based; conditions: Pseudomonas
Source text: as §3, §2

Pasteurella multocida = test: MIC against Pasteurella multocida; format: cell-based; conditions: Pasteurella multocida
Source text: as §3, §2

[4] = test system: Bacillus subtilis ATCC 6633; test: MIC against Bacillus subtilis ATCC 6633; format: cell-based; conditions: Bacillus subtilis
Source text: as §3, §2

Salmonella typhinurium = test: microbe, parasite or virus in culture; format: cell-based, Salmonella typhimurium
Source text: as §3, §2

[5] = test system: Staphylococcus aureus FDA 209P; test: MIC against Staphylococcus aureus FDA 209P; format: cell-based; conditions: Staphylococcus aureus, FDA209P
Source text: as §1, §2

Streptococcus faecalis = test: MIC against Streptococcus faecalis; format: cell-based; conditions: Enterococcus faecalis
Source text: as §3, §2

[6] = IFO13699, Table 1, azaalkenelactams, heart infusion agar, 37° C., 24 hours, read-out: MIC
[7] = Table 3, heart infusion agar, 37° C., 24 hours, read-out: MIC
[8] = Table 1, azaalkenelactams, heart infusion agar, 37° C., 24 hours, read-out: MIC
[9] = IFO3443, Table 3, heart infusion agar, 37° C., 24 hours, read-out: MIC
[10] = ATCC6633, Table 3, heart infusion agar, 37° C., 24 hours, read-out: MIC

Row | SMILES | MIC [1, 6] [mg/L] | MIC [2, 7] [mg/L] | MIC (Escherichia coli NIHJ; [8]) [mg/L] | MIC [3, 9] [mg/L] | MIC (Pasteurella multocida; 24 h) [mg/L] | MIC [4, 10] [mg/L] | MIC (Salmonella typhinurium; [7]) [mg/L] | MIC [5, 8] [mg/L] | MIC (Streptococcus faecalis; [7]) [mg/L] | MIC ([1]; IFO13699, 24 h) [mg/L] | MIC ([2]; 24 h) [mg/L] | MIC (Escherichia coli NIHJ; 24 h) [mg/L] | MIC ([3]; IFO3443, 24 h) [mg/L] | MIC (Pasteurella multocida; [7]) [mg/L] | MIC ([4]; ATCC6633, 24 h) [mg/L] | MIC (Salmonella typhinurium; 24 h) [mg/L] | MIC ([5]; 24 h) [mg/L] | MIC (Streptococcus faecalis; 24 h) [mg/L]
1 | CCCCCCCCCCCCNCCN1CCN=C(C)CC1=O [Example 2, 4-dodecylaminoethyl-7-methyl-3,6-dihydro-2H-1,4-diazepin-5-one] | 12.5 (≈ 37 µM) | 1.56 (≈ 4.62 µM) | 25 (≈ 74.1 µM) | 100 (≈ 296 µM) | < 1.56 | 12.5 (≈ 37 µM) | 3.12 (≈ 9.24 µM) | 12.5 (≈ 37 µM) | 12.5 (≈ 37 µM) |  |  |  |  |  |  |  |  | 
2 | CCCCCCCCCCCC(=O)NCCN1CCN=C(C)CC1=O [Example 9, 4-lauramidoethyl-7-methyl-3,6-dihydro-2H-1,4-diazepin-5-one] |  |  |  |  |  |  |  |  |  | 6.25 (≈ 17.8 µM) | 6.25 (≈ 17.8 µM) | 25 (≈ 71.1 µM) | 100 (≈ 284 µM) | 3.12 (≈ 8.88 µM) | 25 (≈ 71.1 µM) | 6.25 (≈ 17.8 µM) | 12.5 (≈ 35.6 µM) | 12.5 (≈ 35.6 µM)
3 | CCCCCCCCCCCCCCC(O)CNCCN1CCN=C(C)CC1=O (stereo not drawn) [Example 29, 4-(2-hydroxyhexadecyl)aminoethyl-7-methyl-3,6-dihydro-2H-1,4-diazepin-5-one] | 3.12 (≈ 7.62 µM) | 1.56 (≈ 3.81 µM) | 25 (≈ 61 µM) | 100 (≈ 244 µM) |  |  | 3.12 (≈ 7.62 µM) | 6.25 (≈ 15.3 µM) | 6.25 (≈ 15.3 µM) |  |  |  |  | < 1.56 | 3.12 (≈ 7.62 µM) |  |  | 
4 | CCCCCCCCCCCCNCCNCCN1CCN=C(C)CC1=O [Example 34, 4-dodecylaminoethylaminoethyl-7-methyl-3,6-dihydro-2H-1,4-diazepin-5-one] | 3.12 (≈ 8.2 µM) | < 1.56 |  |  |  |  | 3.12 (≈ 8.2 µM) | 3.12 (≈ 8.2 µM) |  |  |  | 25 (≈ 65.7 µM) | 100 (≈ 263 µM) | < 1.56 | 3.12 (≈ 8.2 µM) |  |  | 6.25 (≈ 16.4 µM)
5 | CCCCCCCCCCCCCCNCCN1CCN=C(C)CC1=O [Example 35, 4-tetradecylaminoethyl-7-methyl-3,6-dihydro-2H-1,4-diazepin-5-one] | 1.56 (≈ 4.27 µM) |  |  | 54 (≈ 148 µM) | < 1.56 | 3.12 (≈ 8.53 µM) | 1.56 (≈ 4.27 µM) | 1.56 (≈ 4.27 µM) | 3.12 (≈ 8.53 µM) |  | < 1.56 | 6.25 (≈ 17.1 µM) |  |  |  |  |  | 
6 | CCCCCCCCCCCCCCNCCN1CCN=CC(C)C1=O (stereo not drawn) [Example 40, 4-tetradecylaminoethyl-6-methyl-3,6-dihydro-2H-1,4-diazepin-5-one] | 1.56 (≈ 4.27 µM) | < 1.56 |  |  |  |  | 3.12 (≈ 8.53 µM) | 1.56 (≈ 4.27 µM) |  |  |  | 6.25 (≈ 17.1 µM) | 50 (≈ 137 µM) | < 1.56 | 3.12 (≈ 8.53 µM) |  |  | 3.12 (≈ 8.53 µM)
7 | CCCCCCCCCCCCCCNCCN1CCCN=CC(C)C1=O (stereo not drawn) [Example 48, 1-tetradecylaminoethyl-3-methyl-3,6,7,8-tetrahydro-1,5-diazocin-2-one] | 3.12 (≈ 8.22 µM) | 1.56 (≈ 4.11 µM) |  |  |  |  | 3.12 (≈ 8.22 µM) | 3.12 (≈ 8.22 µM) |  |  |  | 12.5 (≈ 32.9 µM) | 50 (≈ 132 µM) | < 1.56 | 6.25 (≈ 16.5 µM) |  |  | 6.25 (≈ 16.5 µM)
8 | CCCCCCCCCCCCCCNCCN1CCN=CCCC1=O [Example 53, 4-tetradecylaminoethyl-2,3,6,7-tetrahydro-1,4-diazocin-5-one] | 3.12 (≈ 8.53 µM) | 1.56 (≈ 4.27 µM) |  |  |  |  | 3.12 (≈ 8.53 µM) | 1.56 (≈ 4.27 µM) |  |  |  | 6.25 (≈ 17.1 µM) | 100 (≈ 274 µM) | < 1.56 | 3.12 (≈ 8.53 µM) |  |  | 6.25 (≈ 17.1 µM)
9 | CCCCCCCCCCCCCCC(O)CNCCN1CCN=CCCC1=O (stereo not drawn) [Example 54, 4-(2-hydroxyhexadecyl)aminoethyl-2,3,6,7-tetrahydro-1,4-diazocin-5-one] |  | 1.56 (≈ 3.81 µM) |  |  |  |  | 3.12 (≈ 7.62 µM) |  |  | 6.25 (≈ 15.3 µM) |  | 6.25 (≈ 15.3 µM) | 200 (≈ 488 µM) | < 1.56 | 3.12 (≈ 7.62 µM) |  | 6.25 (≈ 15.3 µM) | 6.25 (≈ 15.3 µM)
10 | CCCCCCCCCCCCCCNCCN1CCN=CC(C)(C)C1=O [Example 58, 4-tetradecylaminoethyl-6,6-dimethyl-3-hydro-2H-1,4-diazepin-5-one] | 3.12 (≈ 8.22 µM) |  |  |  | < 1.56 | 3.12 (≈ 8.22 µM) | 1.56 (≈ 4.11 µM) | 3.12 (≈ 8.22 µM) | 3.12 (≈ 8.22 µM) |  | < 1.56 | 6.25 (≈ 16.5 µM) | 50 (≈ 132 µM) |  |  |  |  | 
11 | CCCCCCCCCCCCCCC(O)CNCCN1CCN=CC(C)(C)C1=O (stereo not drawn) [Example 59, 4-(2-hydroxyhexadecyl)aminoethyl-6,6-dimethyl-3-hydro-2H-1,4-diazepin-5-one] | 3.12 (≈ 7.36 µM) | 1.56 (≈ 3.68 µM) | 25 (≈ 59 µM) | 100 (≈ 236 µM) |  |  | 3.12 (≈ 7.36 µM) | 6.25 (≈ 14.8 µM) | 6.25 (≈ 14.8 µM) |  |  |  |  | < 1.56 | 3.12 (≈ 7.36 µM) |  |  | 
12 | CCCCCCCCCCCCCCNCCN1CCCN=CC(C)(C)C1=O [Example 60, 1-tetradecylaminoethyl-3,3-dimethyl-6,7,8-trihydro-1,5-diazocin-5-one] |  | 1.56 (≈ 3.96 µM) |  |  |  |  | 3.12 (≈ 7.93 µM) |  |  | 6.25 (≈ 15.9 µM) |  | 12.5 (≈ 31.8 µM) | 100 (≈ 254 µM) | < 1.56 | 3.12 (≈ 7.93 µM) |  | 6.25 (≈ 15.9 µM) | 6.25 (≈ 15.9 µM)
13 | CCCCCCCCCCCCCCC(O)CNCCN1CCCN=CC(C)(C)C1=O (stereo not drawn) [Example 61, 1-(2-hydroxyhexadecyl)aminoethyl-3,3-dimethyl-6,7,8-trihydro-1,5-diazocin-5-one] |  | 1.56 (≈ 3.56 µM) |  |  |  |  | 3.12 (≈ 7.13 µM) |  |  | 6.25 (≈ 14.3 µM) |  | 25 (≈ 57.1 µM) | 200 (≈ 457 µM) | < 1.56 | 3.12 (≈ 7.13 µM) |  | 6.25 (≈ 14.3 µM) | 6.25 (≈ 14.3 µM)
14 | CCCCCCCCCCCCCCNCCN1CCN=CCC(C)C1=O (stereo not drawn) [Example 65, 4-tetradecylaminoethyl-6-methyl-2,3,6,7-tetrahydro-1,4-diazocin-5-one] |  | 1.56 (≈ 4.11 µM) |  |  |  |  | 3.12 (≈ 8.22 µM) | 3.12 (≈ 8.22 µM) |  | 6.25 (≈ 16.5 µM) |  | 12.5 (≈ 32.9 µM) | 100 (≈ 263 µM) | < 1.56 | 3.12 (≈ 8.22 µM) |  |  | 6.25 (≈ 16.5 µM)
15 | CCCCCCCCCCCCCCC(O)CNCCN1CCN=CCC(C)C1=O (stereo not drawn) [Example 66, 4-(2-hydroxyhexadecyl)aminoethyl-6-methyl-2,3,6,7-tetrahydro-1,4-diazocin-5-one] |  | 1.56 (≈ 3.68 µM) |  |  |  |  | 3.12 (≈ 7.36 µM) |  |  | 12.5 (≈ 29.5 µM) |  | 25 (≈ 59 µM) | 200 (≈ 472 µM) | < 1.56 | 6.25 (≈ 14.8 µM) |  | 12.5 (≈ 29.5 µM) | 6.25 (≈ 14.8 µM)
